These results are taken from patent US20230203029A1 (priority 2020, published 2023).

For assay [1], the target named is T1, human MERTK cytoplasmic domain (Homo sapiens, UniProt Q12866).
T1 construct: human MERTK cytoplasmic domain (Carna Biosciences 08-108); purchased Carna Biosciences 08-108
Put plainly: biochemical. The note with it: 30 uM ATP, read-out: Assay 1a Mer IC50 30 uM ATP. As for the experimental part: Assay 1a—MERTK HTRF KinEASE-TK Assay
The enzymatic reaction was carried out for 30 min at room temperature. 10 μL TK Antibody-Cryptate/Streptavidin-XL665 (Cisbio 610SAXLG) was then added for 60 min, including EDTA containing detection buffer (Cisbio 62SDBRDF) to stop the reaction.

Assay [2] concerns the target T2, recombinant human MERTK expressed in live cells (HEK 293, MERTK-Nanoluc fusion vector) (Homo sapiens, UniProt Q12866).
T2 construct: host or cells: HEK 293
T2 sequence (Q12866 21-999): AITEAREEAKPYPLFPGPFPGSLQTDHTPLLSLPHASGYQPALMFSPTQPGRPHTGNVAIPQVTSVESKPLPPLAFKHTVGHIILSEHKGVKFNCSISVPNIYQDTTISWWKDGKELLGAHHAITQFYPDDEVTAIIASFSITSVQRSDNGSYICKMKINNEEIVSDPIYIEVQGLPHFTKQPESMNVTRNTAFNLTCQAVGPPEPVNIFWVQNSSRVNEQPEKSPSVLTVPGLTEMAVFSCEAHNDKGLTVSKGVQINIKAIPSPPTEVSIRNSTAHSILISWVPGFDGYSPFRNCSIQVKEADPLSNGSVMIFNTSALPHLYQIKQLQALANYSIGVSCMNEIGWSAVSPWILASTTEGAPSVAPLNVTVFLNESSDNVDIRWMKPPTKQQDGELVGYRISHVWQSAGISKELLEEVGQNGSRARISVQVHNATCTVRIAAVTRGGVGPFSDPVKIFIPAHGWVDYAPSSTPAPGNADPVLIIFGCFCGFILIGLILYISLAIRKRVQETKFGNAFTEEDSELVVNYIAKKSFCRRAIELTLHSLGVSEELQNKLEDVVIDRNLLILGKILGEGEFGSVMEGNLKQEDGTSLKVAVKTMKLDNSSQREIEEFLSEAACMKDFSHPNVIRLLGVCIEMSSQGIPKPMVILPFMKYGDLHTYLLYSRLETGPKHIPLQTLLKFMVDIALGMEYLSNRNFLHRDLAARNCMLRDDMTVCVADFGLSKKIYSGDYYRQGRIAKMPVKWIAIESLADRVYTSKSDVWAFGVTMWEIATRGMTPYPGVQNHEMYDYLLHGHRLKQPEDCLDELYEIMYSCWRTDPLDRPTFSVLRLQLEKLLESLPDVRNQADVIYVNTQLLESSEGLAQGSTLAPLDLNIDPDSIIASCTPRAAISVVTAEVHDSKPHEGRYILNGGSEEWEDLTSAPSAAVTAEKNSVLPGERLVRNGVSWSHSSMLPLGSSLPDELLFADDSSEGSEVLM
In words: Assay 2 MERTK cellular target engagement (NanoBRET TE) assay. In kind it is cell-based. The settings on record: HEK 293 cells, tracer K9, 2 h at 37° C.; read-out: Assay 2 Cell TE MER IC50.

In assay [3] the target is T3, human AXL cytoplasmic domain (Homo sapiens, UniProt P30530).
T3 construct: human AXL cytoplasmic domain (Thermo Fisher A31515); purchased Thermo Fisher A31515
T3 sequence (P30530 473-894 limits assumed): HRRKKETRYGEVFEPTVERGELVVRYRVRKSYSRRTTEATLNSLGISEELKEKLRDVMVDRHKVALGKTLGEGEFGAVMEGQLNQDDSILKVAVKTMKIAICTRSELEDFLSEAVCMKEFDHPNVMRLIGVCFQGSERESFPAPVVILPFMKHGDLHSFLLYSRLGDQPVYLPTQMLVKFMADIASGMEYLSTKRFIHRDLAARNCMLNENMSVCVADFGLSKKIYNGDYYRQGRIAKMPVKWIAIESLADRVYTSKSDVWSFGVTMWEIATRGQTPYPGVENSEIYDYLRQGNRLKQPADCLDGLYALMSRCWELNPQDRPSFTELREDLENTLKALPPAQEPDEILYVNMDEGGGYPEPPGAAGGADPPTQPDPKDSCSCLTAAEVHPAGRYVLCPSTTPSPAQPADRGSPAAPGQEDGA
In words: Assay 1b AXL HTRF KinEASE-TK assay. The class given is biochemical. Put shortly:
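Recombinant cytoplasmic domain (5 nM) in kinase buffer with 5 mM MgCl2, 1 mM MnCl2, 1 mM DTT, 50 nM SEB plus test compounds; reaction 30 min at room temperature. EDTA-containing detection with TK antibody-cryptate/streptavidin-XL665 for 60 min; HTRF 665/620 ratio read. IC50 from 4-parameter logistic fit with variable slope.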

The target of assay [4] is T4, Ba/F3 Pro B-cell line expressing TEL-human MERTK fusion domain (Homo sapiens, UniProt Q12866).
T4 sequence (Q12866 587-858 limits assumed): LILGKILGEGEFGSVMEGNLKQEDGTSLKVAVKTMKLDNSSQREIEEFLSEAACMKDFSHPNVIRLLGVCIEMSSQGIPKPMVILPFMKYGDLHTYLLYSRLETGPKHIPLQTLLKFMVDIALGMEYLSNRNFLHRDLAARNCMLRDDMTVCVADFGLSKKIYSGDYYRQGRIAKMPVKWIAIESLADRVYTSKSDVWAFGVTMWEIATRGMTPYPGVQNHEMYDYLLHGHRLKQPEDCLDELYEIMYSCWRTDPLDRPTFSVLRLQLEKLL
The class given is cell-based. The settings on record: cell survival, 48 h, CellTiter-Glo; read-out: TEL-MERTK Ba/F3 IC50. Put shortly: (§1)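 Ba/F3 cells dependent on BCR-AXL or TEL-MERTK fusion kinase (IL3-free; IL3 only for control lines) treated with compound 48 h at 37 °C, 0.25% DMSO. Viability by CellTiter-Glo luminescence; IC50 for half-maximal inhibition of survival from 4-parameter variable-slope fit.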
In general terms: Cellular ATP, detected with luciferase, serves as a proxy for viable cell number.

In assay [5] the target is T5, Ba/F3 Pro B-cell line expressing BCR-human AXL kinase domain fusion protein (Homo sapiens, UniProt P30530).
T5 construct: P11274 (Breakpoint cluster region protein)
T5 sequence (P30530 536-807 limits assumed): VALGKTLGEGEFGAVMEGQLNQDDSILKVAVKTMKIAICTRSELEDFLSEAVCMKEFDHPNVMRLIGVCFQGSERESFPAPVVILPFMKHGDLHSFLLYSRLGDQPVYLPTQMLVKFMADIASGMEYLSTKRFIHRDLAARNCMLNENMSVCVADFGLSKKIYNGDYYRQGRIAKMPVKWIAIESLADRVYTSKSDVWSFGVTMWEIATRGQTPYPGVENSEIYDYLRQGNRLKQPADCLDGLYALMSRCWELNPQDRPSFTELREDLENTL
Put plainly: Assay 5 Ba/F3 cell survival assay, BCR-Axl. In kind it is cell-based. The settings on record: read-out: BCR-Axl Ba/F3 IC50, 48 h, CellTiter-Glo. Put shortly:
as §1

The target in assay [6] is T6, Ba/F3 Pro B-cell line expressing TEL-human Tyro3 fusion domain (Homo sapiens, UniProt Q06418).
T6 sequence (Q06418 518-790 limits assumed): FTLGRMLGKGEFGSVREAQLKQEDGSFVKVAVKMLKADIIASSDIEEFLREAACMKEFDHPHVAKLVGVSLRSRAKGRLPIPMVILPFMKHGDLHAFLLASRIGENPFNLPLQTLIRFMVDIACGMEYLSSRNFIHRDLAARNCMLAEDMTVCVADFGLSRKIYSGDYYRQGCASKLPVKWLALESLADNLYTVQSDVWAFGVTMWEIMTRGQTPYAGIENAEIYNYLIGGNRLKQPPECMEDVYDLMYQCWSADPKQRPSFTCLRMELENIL
In kind it is cell-based. The settings on record: cell survival, 48 h, CellTiter-Glo.

Molecules are shown by their SMILES. Where two headings read alike, the source gives them in different places.

As to `Cc1c(C(=O)Nc2ccc(Nc3ccnc4cnc(N5CCNCC5)cc34)cc2)c(=O)n(-c2ccccc2)n1C` [Example 1.4, 1,5-dimethyl-3-oxo-2-phenyl-N-[4-[(6-piperazin-1-yl-1,7-naphthyridin-4-yl)amino]phenyl]pyrazole-4-carboxamide], the IC50 in assay [1] came out at 33 nM; in assay [2] it was 2190 nM.
Take `Cn1cc(-c2cc3c(Nc4ccc(NC(=O)c5cccn(-c6ccccc6)c5=O)cc4)ccnc3cn2)cn1` [Example 4, N-[4-[[6-(1-methylpyrazol-4-yl)-1,7-naphthyridin-4-yl]amino]phenyl]-2-oxo-1-phenyl-pyridine-3-carboxamide]: the IC50 in assay [1] (* Maximal inhibition achieved 40%) was determined as 3 nM; in assay [2], 2900 nM.
As to `CC(C)n1cc(C(=O)Nc2ccc(Oc3ccnc4cnc(C(=O)NC5CCN(C(=O)OC(C)(C)C)CC5)cc34)cn2)c(=O)n(-c2ccc(F)cc2)c1=O` [Example 27.1, tert-butyl 4-[[4-[[6-[[3-(4-fluorophenyl)-1-isopropyl-2,4-dioxo-pyrimidine-5-carbonyl]amino]-3-pyridyl]oxy]-1,7-naphthyridine-6-carbonyl]amino]piperidine-1-carboxylate], the IC50 in assay [1] was found to be 11 nM; in assay [3] it was 3 nM; in assay [4], 67 nM; in assay [5] it was 15 nM; in assay [6] it was 881 nM.
For `CC(C)n1cc(C(=O)Nc2ccc(Oc3ccnc4cnc(C(=O)NC5CC6CCC(C5)N6C)cc34)cn2)c(=O)n(-c2ccc(F)cc2)c1=O` (centres unmarked) [Example 27.2, 4-[[6-[[3-(4-fluorophenyl)-1-isopropyl-2,4-dioxo-pyrimidine-5-carbonyl]amino]-3-pyridyl]oxy]-N-(8-methyl-8-azabicyclo[3.2.1]octan-3-yl)-1,7-naphthyridine-6-carboxamide], the IC50 in assay [1] came to 17 nM; in assay [3] (# 1 μM ATP used in assay, read-out: Assay 1b Axl IC50) it was 4 nM; in assay [4], 49 nM; in assay [5], 13 nM; in assay [6], 376 nM.
As to `CC(C)n1cc(C(=O)Nc2ccc(Oc3ccnc4cnc(C(=O)NCCN(C)C)cc34)cn2)c(=O)n(-c2ccc(F)cc2)c1=O` [Example 27.3, N-[2-(dimethylamino)ethyl]-4-[[6-[[3-(4-fluorophenyl)-1-isopropyl-2,4-dioxo-pyrimidine-5-carbonyl]amino]-3-pyridyl]oxy]-1,7-naphthyridine-6-carboxamide], the IC50 was determined as 31 nM in assay [1]; 6 nM in assay [3]; 44 nM in assay [4]; 21 nM in assay [5]; 631 nM in assay [6].
The matching figures for `Cc1cc(NC(=O)c2cccn(-c3ccccc3)c2=O)ccc1Oc1ccnc2cnc(C(=O)NC3CCN(C)CC3)cc12` [Example 34, 4-[2-Methyl-4-[(2-oxo-1-phenyl-pyridine-3-carbonyl)amino]phenoxy]-N-(1-methyl-4-piperidyl)-1,7-naphthyridine-6-carboxamide]: 43 nM, 296 nM, 144 nM, 73 nM and 128 nM.
As to `CN1CCN(c2cc3c(Oc4ccc(NC(=O)c5cccn(-c6ccc(F)cc6)c5=O)cc4)ccnc3cn2)CC1` [Example 35, 1-(4-fluorophenyl)-N-[4-[[6-(4-methylpiperazin-1-yl)-1,7-naphthyridin-4-yl]oxy]phenyl]-2-oxo-pyridine-3-carboxamide], the IC50 in assay [1] was found to be 4 nM; in assay [3] it was 60 nM; in assay [4], 14 nM; in assay [5] it was 8 nM; in assay [6], 116 nM.
